Assays:
LKB1 = target: T1, LKB1 (Homo sapiens, UniProt Q15831); experiment: KINOMEscan scanEDGE; type: binding; conditions: 20 uM
T1 construct: purchased Eurofins DiscoverX (KINOMEscan; SAFETYscan E/IC50 ELECT)

[1] = target: T2, JAK3(JH1domain-catalytic) (Homo sapiens, UniProt P52333); experiment: KINOMEscan scanEDGE; type: binding; conditions: 20 uM
T2 construct: JAK3(JH1domain-catalytic); purchased Eurofins DiscoverX (KINOMEscan; SAFETYscan E/IC50 ELECT)

[2] = tested on: mouse extensor digitorum longus (EDL) muscle; experiment: Ex vivo isometric force, mouse EDL; conditions: WT mouse EDL, 10 μM
Procedure: Isometric force was measured ex vivo in mouse EDL and soleus muscle. EDL muscle eccentric injury was based on published protocols ([30]), with degree of lengthening and stimulation modified to yield a uniform drop in mdx isometric and peak force over 10 contractions. After isolation, muscle was mounted via 5-0 suture to a combination servomotor/force transducer (300C-LR, Aurora) between 2 electrodes connected to a stimulator (701C, Aurora) in Ringers solution at 27°C with continuously infused CO2/O2 gas mixture. Experiments were recorded with custom MATLAB software via a National Instruments PCIe-6321 board and 2090A BNC connector. Muscles were preincubated for 60 minutes with DMSO (final 0.1%)/compound before 10 eccentric contractions, 1 minute apart, with 100 milliseconds of isometric stimulation at 100 Hz and active lengthening of 0.1 L0 at a rate of 2 L0/s. After lengthening, muscles were held at 1.1 L0 with stimulation for 100 milliseconds (Supplemental Figure 2A).

[3] = tested on: psoas S1 (fast skeletal muscle myosin); experiment: Stopped-flow analysis of Pi release from myosin; type: biochemical, rabbit; design: dose or concentration left out as unconfirmed; conditions: preincubation with myosin 30 minutes prior to actin
Procedure: The rate of Pi release from myosin with actin utilized a fluorescent phosphate binding protein, as described previously ([63]). Experiments were performed in 10 mM MOPS, pH 7.0; 5 mM KCL; 1 mM EGTA; 1 mM DTT; 0.5 mM MgCl2. ATP and ADP were removed by incubation with apyrase ([64]). Prior to mixing with 1 mM ATP in a stopped flow device, compound was incubated with 6 μM psoas S1 at 25°C for 30 minutes.

DBA/2J mdx mouse = experiment: 12-week dosing in DBA/2J mdx mice (fibrosis); type: in vivo; conditions: 12 weeks, chow
From the text: C57BL/6 (stock no. 000664), C57BL/10J (stock no. 000665, control for mdx experiments), C57BL/10ScSn-Dmd^mdx/J (mdx, stock no. 001801), and D2.B10 (DBA/2-congenic) Dmd^mdx (DBA/2J mdx, stock no. 013141) mice were from The Jackson Laboratory. Sprague-Dawley rats were purchased from Charles River Laboratories. For ex vivo experiments, mice were 10–16 weeks old. For in situ experiments, mice were 8–14 weeks of age. For in vivo chronic dosing studies, mdx and DBA/2J mdx were 4–5 weeks of age at study start. Dosing was via a 10 mL/kg suspension (1% methyl cellulose, 0.1% Tween 80 in water). For studies in 14-day-old preweaning mice, PO dosing was via syrup suspension (3 mg/kg/d). […]
For sterile muscle injury, mice were anesthetized with isoflurane and 50 μL cardiotoxin (12 × 10^–6 M, 217503, Millipore) injected in the TA muscle. […] 8 μm cryosections were cut and stained with H&E. For each analysis, more than 10 slides (per condition/group) containing 6 muscle sections/sample were used, and myofibers in the injured area were counted and measured with a Mirax digital scanner and HALO software ([68]). […] Image analysis was performed using ImarisX64 software (Bitplane AG), and fiber sizing was calculated using minimal Feret’s diameter ([69]). […] Fiber type, size, and central nucleation were quantified with analysis via SMASH ([70]) and ImageJ (NIH). […]

GR = target: T3, GR (Homo sapiens, UniProt P04150); experiment: SAFETYscan NHR Protein Interaction; type: cell-based; design: dose or concentration left out as unconfirmed
T3 construct: purchased Eurofins DiscoverX (KINOMEscan; SAFETYscan E/IC50 ELECT)
Procedure: (§1) The specificity of EDG-5506 for fast skeletal myosin over other, unrelated proteins was confirmed using two off-target binding and activity screens. […] A second off-target panel (SAFETYscan E/IC50 ELECT, Eurofins DiscoverX) tested in vitro enzyme activity against 78 proteins, including GPCR, ion channel, kinases, nuclear hormone receptors, and transporters. In all assays, the IC50 of EDG-5506 was more than 10 μM (Supplemental Data File 1).

ROCK2 = target: T4, ROCK2 (Homo sapiens, UniProt O75116); experiment: KINOMEscan scanEDGE; type: binding; conditions: 20 uM
T4 construct: purchased Eurofins DiscoverX (KINOMEscan; SAFETYscan E/IC50 ELECT)

GSK3B = target: T5, GSK3B (Homo sapiens, UniProt P49841); experiment: KINOMEscan scanEDGE; type: binding; conditions: 20 uM
T5 construct: purchased Eurofins DiscoverX (KINOMEscan; SAFETYscan E/IC50 ELECT)

CDK3 = target: T6, CDK3 (Homo sapiens, UniProt Q00526); experiment: KINOMEscan scanEDGE; type: binding; conditions: 20 uM
T6 construct: purchased Eurofins DiscoverX (KINOMEscan; SAFETYscan E/IC50 ELECT)

RAF1 = target: T7, RAF1 (Homo sapiens, UniProt P04049); experiment: KINOMEscan scanEDGE; type: binding; conditions: 20 uM
T7 construct: purchased Eurofins DiscoverX (KINOMEscan; SAFETYscan E/IC50 ELECT)

AChE = target: T8, AChE (Homo sapiens, UniProt P22303); experiment: SAFETYscan Enzymatic; type: biochemical; design: dose or concentration left out as unconfirmed; conditions: read-out: Max Response (%) (Antagonist)
T8 construct: purchased Eurofins DiscoverX (KINOMEscan; SAFETYscan E/IC50 ELECT)
Procedure: as §1

MAOA = target: T9, MAOA (Homo sapiens, UniProt P21397); experiment: SAFETYscan Enzymatic; type: biochemical; design: dose or concentration left out as unconfirmed; conditions: read-out: Max Response (%) (Antagonist)
T9 construct: purchased Eurofins DiscoverX (KINOMEscan; SAFETYscan E/IC50 ELECT)
Procedure: as §1

PDE3A = target: T10, PDE3A (Homo sapiens, UniProt Q14432); experiment: SAFETYscan Enzymatic; type: biochemical; design: dose or concentration left out as unconfirmed; conditions: read-out: Max Response (%) (Antagonist)
T10 construct: purchased Eurofins DiscoverX (KINOMEscan; SAFETYscan E/IC50 ELECT)
Procedure: as §1

PDE4D2 = target: T11, PDE4D2 (Homo sapiens, UniProt Q08499); experiment: SAFETYscan Enzymatic; type: biochemical; design: dose or concentration left out as unconfirmed; conditions: read-out: Max Response (%) (Antagonist)
T11 construct: purchased Eurofins DiscoverX (KINOMEscan; SAFETYscan E/IC50 ELECT)
Procedure: as §1

COX1 = target: T12, COX1 (Homo sapiens, UniProt P23219); experiment: SAFETYscan Enzymatic; type: biochemical; design: dose or concentration left out as unconfirmed; conditions: read-out: Max Response (%) (Antagonist)
T12 construct: purchased Eurofins DiscoverX (KINOMEscan; SAFETYscan E/IC50 ELECT)
Procedure: as §1

COX2 = target: T13, COX2 (Homo sapiens, UniProt P35354); experiment: SAFETYscan Enzymatic; type: biochemical; design: dose or concentration left out as unconfirmed; conditions: read-out: Max Response (%) (Antagonist)
T13 construct: purchased Eurofins DiscoverX (KINOMEscan; SAFETYscan E/IC50 ELECT)
Procedure: as §1

MARK3 = target: T14, MARK3 (Homo sapiens, UniProt P27448); experiment: KINOMEscan scanEDGE; type: binding; conditions: 20 uM
T14 construct: purchased Eurofins DiscoverX (KINOMEscan; SAFETYscan E/IC50 ELECT)

T3 sequence (P04150 whole entry): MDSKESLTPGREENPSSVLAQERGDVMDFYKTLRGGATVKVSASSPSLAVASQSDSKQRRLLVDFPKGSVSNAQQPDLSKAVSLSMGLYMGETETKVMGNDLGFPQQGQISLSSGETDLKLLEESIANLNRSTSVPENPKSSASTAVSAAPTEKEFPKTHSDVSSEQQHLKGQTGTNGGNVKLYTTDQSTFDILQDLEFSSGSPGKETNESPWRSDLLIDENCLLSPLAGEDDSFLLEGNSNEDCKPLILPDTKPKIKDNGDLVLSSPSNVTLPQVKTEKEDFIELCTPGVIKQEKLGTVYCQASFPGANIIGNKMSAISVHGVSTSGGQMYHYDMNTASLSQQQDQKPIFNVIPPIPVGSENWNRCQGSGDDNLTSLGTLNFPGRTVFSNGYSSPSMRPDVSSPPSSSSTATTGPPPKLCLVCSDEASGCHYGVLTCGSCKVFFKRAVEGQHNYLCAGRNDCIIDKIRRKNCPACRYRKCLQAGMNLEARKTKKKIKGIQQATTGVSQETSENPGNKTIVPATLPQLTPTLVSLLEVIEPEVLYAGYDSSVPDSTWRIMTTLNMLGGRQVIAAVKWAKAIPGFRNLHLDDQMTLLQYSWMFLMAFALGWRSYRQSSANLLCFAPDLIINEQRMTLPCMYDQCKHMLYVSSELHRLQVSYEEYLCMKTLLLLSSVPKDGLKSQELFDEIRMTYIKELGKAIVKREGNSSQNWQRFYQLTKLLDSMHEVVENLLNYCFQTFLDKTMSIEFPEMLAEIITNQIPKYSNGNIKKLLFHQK
T8 sequence (P22303 32-614): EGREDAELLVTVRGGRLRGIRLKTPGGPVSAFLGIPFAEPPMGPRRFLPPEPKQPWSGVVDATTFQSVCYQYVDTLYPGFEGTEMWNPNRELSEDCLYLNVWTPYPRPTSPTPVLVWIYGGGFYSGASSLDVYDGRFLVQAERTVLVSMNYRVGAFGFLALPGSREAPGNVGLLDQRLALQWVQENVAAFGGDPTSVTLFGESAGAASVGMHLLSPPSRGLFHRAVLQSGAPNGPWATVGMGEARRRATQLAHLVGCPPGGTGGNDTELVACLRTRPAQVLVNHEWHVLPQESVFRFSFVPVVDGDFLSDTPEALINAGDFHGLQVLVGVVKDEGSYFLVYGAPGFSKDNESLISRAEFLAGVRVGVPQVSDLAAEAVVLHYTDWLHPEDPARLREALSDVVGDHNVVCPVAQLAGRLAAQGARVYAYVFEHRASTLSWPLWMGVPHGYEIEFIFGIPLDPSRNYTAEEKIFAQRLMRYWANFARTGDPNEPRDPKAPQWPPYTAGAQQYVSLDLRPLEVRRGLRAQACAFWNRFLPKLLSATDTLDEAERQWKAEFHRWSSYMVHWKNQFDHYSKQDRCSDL
T12 sequence (P23219 24-599): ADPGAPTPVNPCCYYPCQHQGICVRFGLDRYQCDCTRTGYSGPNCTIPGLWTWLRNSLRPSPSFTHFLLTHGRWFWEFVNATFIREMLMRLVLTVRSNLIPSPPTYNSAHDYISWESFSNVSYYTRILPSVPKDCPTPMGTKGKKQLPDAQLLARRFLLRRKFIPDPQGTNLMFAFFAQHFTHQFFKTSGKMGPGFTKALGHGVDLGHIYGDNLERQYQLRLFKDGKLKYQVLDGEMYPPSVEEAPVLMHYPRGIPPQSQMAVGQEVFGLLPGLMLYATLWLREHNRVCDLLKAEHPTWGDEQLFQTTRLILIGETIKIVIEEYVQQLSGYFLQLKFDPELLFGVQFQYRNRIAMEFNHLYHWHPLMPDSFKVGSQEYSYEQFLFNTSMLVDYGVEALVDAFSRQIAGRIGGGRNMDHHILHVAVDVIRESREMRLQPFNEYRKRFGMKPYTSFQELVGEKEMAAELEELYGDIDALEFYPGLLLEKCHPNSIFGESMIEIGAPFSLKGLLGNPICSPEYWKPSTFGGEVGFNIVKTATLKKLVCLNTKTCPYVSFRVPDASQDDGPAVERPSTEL
T10 sequence (Q14432 whole entry): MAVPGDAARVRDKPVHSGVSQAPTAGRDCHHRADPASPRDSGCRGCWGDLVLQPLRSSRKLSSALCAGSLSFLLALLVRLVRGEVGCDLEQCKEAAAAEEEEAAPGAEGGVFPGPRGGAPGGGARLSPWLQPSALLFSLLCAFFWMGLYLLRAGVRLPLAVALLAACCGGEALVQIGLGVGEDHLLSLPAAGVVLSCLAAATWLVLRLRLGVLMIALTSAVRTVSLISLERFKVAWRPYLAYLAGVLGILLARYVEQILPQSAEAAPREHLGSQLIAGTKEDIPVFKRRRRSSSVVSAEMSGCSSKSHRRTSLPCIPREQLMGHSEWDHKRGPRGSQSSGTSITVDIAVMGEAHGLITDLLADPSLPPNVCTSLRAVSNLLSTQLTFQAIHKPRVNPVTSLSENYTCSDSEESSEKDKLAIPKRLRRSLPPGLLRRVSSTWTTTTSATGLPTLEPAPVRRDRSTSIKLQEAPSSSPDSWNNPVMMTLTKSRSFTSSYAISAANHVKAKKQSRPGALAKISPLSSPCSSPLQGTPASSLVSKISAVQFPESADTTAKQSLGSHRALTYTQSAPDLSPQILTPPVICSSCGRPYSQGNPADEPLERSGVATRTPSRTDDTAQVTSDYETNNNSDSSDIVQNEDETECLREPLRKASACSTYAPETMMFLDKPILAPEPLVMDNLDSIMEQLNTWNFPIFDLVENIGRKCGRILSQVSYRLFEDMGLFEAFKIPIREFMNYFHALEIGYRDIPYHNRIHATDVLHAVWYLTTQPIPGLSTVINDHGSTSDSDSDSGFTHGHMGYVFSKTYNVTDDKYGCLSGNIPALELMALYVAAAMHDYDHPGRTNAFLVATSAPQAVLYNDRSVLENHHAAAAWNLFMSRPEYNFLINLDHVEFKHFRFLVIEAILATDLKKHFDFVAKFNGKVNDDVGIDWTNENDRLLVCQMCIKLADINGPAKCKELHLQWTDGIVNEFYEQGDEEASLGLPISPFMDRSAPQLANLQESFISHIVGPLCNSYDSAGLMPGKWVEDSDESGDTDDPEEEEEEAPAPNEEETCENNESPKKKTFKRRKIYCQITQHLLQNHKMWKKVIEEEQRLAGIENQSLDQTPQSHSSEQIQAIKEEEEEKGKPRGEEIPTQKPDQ
T5 sequence (P49841 whole entry): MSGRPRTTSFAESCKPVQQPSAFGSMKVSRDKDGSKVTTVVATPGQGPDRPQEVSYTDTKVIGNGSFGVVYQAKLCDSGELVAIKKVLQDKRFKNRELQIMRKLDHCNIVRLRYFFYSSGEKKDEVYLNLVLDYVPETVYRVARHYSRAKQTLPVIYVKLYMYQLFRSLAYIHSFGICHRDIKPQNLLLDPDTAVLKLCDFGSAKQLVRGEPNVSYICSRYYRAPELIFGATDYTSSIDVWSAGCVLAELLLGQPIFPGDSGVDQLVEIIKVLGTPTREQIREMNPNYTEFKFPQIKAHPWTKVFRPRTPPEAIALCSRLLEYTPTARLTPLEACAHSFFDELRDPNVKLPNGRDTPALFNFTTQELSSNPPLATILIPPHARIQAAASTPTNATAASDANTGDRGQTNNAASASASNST
T2 sequence (P52333 811-1124 limits assumed): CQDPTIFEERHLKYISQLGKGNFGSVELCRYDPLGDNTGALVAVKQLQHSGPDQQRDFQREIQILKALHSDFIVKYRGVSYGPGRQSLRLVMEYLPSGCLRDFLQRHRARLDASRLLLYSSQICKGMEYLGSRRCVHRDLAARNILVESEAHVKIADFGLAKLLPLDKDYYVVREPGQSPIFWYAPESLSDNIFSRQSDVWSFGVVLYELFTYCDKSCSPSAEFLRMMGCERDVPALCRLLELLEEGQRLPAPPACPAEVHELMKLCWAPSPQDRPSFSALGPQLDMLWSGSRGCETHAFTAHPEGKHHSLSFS
T13 sequence (P35354 18-604): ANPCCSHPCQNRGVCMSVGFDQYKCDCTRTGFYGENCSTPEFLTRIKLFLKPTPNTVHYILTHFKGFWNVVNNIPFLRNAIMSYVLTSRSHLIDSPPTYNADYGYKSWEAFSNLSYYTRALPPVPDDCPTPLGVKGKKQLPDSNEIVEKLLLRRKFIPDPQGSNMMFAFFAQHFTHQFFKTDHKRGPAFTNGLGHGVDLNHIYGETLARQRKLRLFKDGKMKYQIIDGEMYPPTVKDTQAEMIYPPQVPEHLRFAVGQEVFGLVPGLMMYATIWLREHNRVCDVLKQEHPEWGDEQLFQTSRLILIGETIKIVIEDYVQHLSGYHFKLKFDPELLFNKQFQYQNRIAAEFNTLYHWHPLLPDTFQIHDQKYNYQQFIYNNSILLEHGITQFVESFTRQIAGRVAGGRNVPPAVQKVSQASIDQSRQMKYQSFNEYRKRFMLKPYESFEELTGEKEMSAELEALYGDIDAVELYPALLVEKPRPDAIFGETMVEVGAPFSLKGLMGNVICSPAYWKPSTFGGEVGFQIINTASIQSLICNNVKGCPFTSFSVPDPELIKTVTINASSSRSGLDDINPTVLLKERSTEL
T9 sequence (P21397 whole entry): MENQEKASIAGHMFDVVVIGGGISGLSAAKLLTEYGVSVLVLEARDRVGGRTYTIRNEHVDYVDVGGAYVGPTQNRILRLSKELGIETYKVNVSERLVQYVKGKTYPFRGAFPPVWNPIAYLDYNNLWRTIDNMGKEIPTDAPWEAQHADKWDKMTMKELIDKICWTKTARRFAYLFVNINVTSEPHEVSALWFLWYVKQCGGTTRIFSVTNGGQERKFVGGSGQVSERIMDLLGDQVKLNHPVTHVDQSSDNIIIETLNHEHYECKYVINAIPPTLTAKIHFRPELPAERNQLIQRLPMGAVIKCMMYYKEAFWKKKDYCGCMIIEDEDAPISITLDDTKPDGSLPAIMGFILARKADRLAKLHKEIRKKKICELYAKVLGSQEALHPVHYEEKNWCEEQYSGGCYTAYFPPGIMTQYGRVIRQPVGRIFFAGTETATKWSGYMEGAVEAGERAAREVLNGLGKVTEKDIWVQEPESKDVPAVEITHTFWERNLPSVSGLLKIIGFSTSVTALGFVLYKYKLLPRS

## O=c1ccc(-c2cnc(OCC(F)(F)F)nc2)nn1Cc1cncc(F)c1 [EDG-5506]
LKB1
  binding, % of control: 86 % of control
[1]
  binding, % of control: 100 % of control
[2]
  ex vivo force inhibition: completely inhibiting force
[3]
  rate of Pi release from myosin with actin: decreased the rate of Pi release
DBA/2J mdx mouse
  fibrosis in TA and diaphragm muscles: reduced fibrosis
  left ventricular fibrosis: trend toward lower fibrosis
GR; read-out: Max Response (%) (Agonist)
  Emax: 0.41%
GR; read-out: Max Response (%) (Antagonist)
  Max inhibition (antagonist mode): 33.6%
ROCK2
  binding, % of control: 89 % of control
GSK3B
  binding, % of control: 99 % of control
CDK3
  binding, % of control: 100 % of control
RAF1
  binding, % of control: 100 % of control
AChE
  Emax: 16.4%
MAOA
  Emax: 7.79%
PDE3A
  Emax: 0.91%
PDE4D2
  Emax: 7.16%
COX1
  Emax: 4.78%
COX2
  Emax: 3.26%
MARK3
  binding, % of control: 85 % of control

— paper PMC10178848, “Modulating fast skeletal muscle contraction protects skeletal muscle in animal models of Duchenne muscular dystrophy” (The Journal of Clinical Investigation, 2023)
